# pEC50, pIC50: −log10 of the molar value. Read-outs that look alike come from different tables or passages of the source.
# What was measured:
# PLA2G16 = molecular target: T1, PLA2G16 (Homo sapiens, UniProt P53816); test: Enzyme activity assay for PLA2G16 (Red/Green BODIPY PC-A2 fluorescence); assay type: biochemical; conditions: His-tagged PLA2G16, 4 min pre-incubation, 2 nM to 50 μM; read-out: IC50 values of the compounds determined in the enzyme activity assay for PLA2G16
# T1 construct: Hexa-His (N); made in house; host or cells: E. coli BL21(DE3)
# T1 sequence (P53816 1-162): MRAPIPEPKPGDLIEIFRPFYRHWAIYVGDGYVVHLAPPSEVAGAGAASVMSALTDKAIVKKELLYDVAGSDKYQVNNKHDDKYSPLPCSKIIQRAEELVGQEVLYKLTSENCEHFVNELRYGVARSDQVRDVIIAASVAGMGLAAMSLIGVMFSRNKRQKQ
# Summary of the method: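 N-His-tagged human PLA2G16 from E. coli, Ni-NTA purified. Pre-incubated 4 min with compound (2 nM–50 μM final) in pH 8.5 Tris/NaCl buffer with 5 mM glutathione, then BODIPY PC-A2 in DOPC/DOPG/cholesterol vesicles added. Fluorescence (ex 480/em 530 nm) increase over 10 min taken as activity; IC50 by non-linear regression.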
# [1] = test system: picornaviruses (CVB1, HRV-A2, HRV-A23, EV-68); test: Anti-picornavirus cytopathic effect (CPE) reduction assay on HeLa H1 cells; assay type: cell-based; conditions: HeLa H1 cells, 48 h, category from averaging the EC50 values from four picornaviruses (CVB1, HRV-A2, HRV-A23, EV68), read-out: EC50 values of the compounds determined in the anti-picornavirus assay
# Summary of the method: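 HeLa H1 cells pre-treated 2 h with serially diluted compound in DMEM/2% FBS, then infected at an MOI giving full CPE in 2 days. After 48 h at 37° C, viability read by CellTiterBlue fluorescence (ex 560/em 590 nm), normalised to infected and uninfected vehicle controls; EC50 by non-linear regression, category from mean of four viruses.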
Compound,pIC50 (PLA2G16),"pEC50 ([1]; Enterovirus B, HeLa H1, 48 h)",pEC50 [1],"pEC50 ([1]; Enterovirus B, CVB1|EV68|HRVA2|HRVA23, HeLa H1, 48 h)"
"CCNC(=O)C(=O)C1N(Cc2ccccc2)C(=O)CC12CC2 (stereo not drawn) [FP 348, 2-{5-Benzyl-6-oxo-5-azaspiro[2.4]heptan-4-yl}-N-ethyl-2-oxoacetamide]",> 6.00,> 6.00,–,–
"CC(C)NC(=O)[C@H]1C[C@H](NC(=O)C(=O)[C@H]2CCC(=O)N2Cc2ccccc2)C1 [FP 306, (1 r,3r)-3-{2-[(2R)-1-Benzyl-5-oxopyrrolidin-2-yl]-2-oxoacetamido}-N-(propan-2-yl)cyclobutane-1-carboxamide]",> 6.00,5.00 to 6.00,–,–
"C[C@H]1CC(=O)N(Cc2ccccc2)[C@H]1C(=O)C(=O)NC1CC1 (single isomer, unassigned) [FP 341]",> 6.00,5.00 to 6.00,–,–
"CC(C(=O)C(=O)NCC(F)F)N(C=O)C1CCCCC1 (stereo not drawn) [FP 111, 3-(N-Cyclohexylformamido)-N-(2,2-difluoroethyl)-2-oxobutanamide]",> 6.00,< 5.00,–,–
"CCCC(NC(=O)c1ccccc1)C(=O)C(=O)NCC1CC1 (stereo not drawn) [FP 154, N-(Cyclopropylmethyl)-2-oxo-3-(phenylformamido)hexanamide]",> 6.00,5.00 to 6.00,–,–
"COc1ccccc1N(C=O)C(C)C(=O)C(=O)NCCc1cccc(Cl)c1 (stereo not drawn) [FP 97, N-[2-(3-Chlorophenyl)ethyl]-3-[N-(2-methoxyphenyl)formamido]-2-oxobutanamide]",> 6.00,> 6.00,–,–
"O=C(NCC1CCCCC1)C(=O)C1CCC(=O)N1CCC1CCOCC1 (stereo not drawn) [FP 245, N-(Cyclohexylmethyl)-2-{1-[2-(oxan-4-yl)ethyl]-5-oxopyrrolidin-2-yl}-2-oxoacetamide]",> 6.00,5.00 to 6.00,–,–
"CC(C(=O)C(=O)NCc1cccc(Cl)c1)N(C=O)CC(C)(C)C (stereo not drawn) [FP 23, N-[(3-Chlorophenyl)methyl]-3-[N-(2,2-dimethylpropyl)formamido]-2-oxobutanamide]",> 6.00,> 6.00,–,–
"CC(C)CNC(=O)C(=O)C(C)N(C=O)C1CCCCC1 (stereo not drawn) [FP 15, 3-(N-Cyclohexylformamido)-N-(2-methylpropyl)-2-oxobutanamide]",> 6.00,> 6.00,–,–
"COc1ccccc1N(C=O)C(C)C(=O)C(=O)NCC1CC1 (stereo not drawn) [FP 105, N-(Cyclopropylmethyl)-3-[N-(2-methoxyphenyl)formamido]-2-oxobutanamide]",> 6.00,5.00 to 6.00,–,–
"C[C@@H]1C[C@H]1NC(=O)C(=O)[C@H]1CCC(=O)N1Cc1ccccc1 [FP 271, 2-[(2R)-1-Benzyl-5-oxopyrrolidin-2-yl]-N-[(1R,2R)-2-methylcyclopropyl]-2-oxoacetamide]",> 6.00,> 6.00,–,–
"CC(C(=O)C(=O)NCC1CCCCC1)N(C)C(=O)c1ccccc1 (stereo not drawn) [FP 176, N-(Cyclohexylmethyl)-3-(N-methyl-1-phenylformamido)-2-oxobutanamide]",> 6.00,> 6.00,–,–
"CCC(C(=O)C(=O)NCC1CCCCC1)N(C=O)CC1CCN(C(=O)OC(C)(C)C)CC1 (stereo not drawn) [FP 59, tert-Butyl 4-[(N-{1-[(cyclohexylmethyl)carbamoyl]-1-oxobutan-2-yl} formamido)methyl]-piperidine-1-carboxylate]",> 6.00,5.00 to 6.00,–,–
"COc1ccccc1CNC(=O)C(=O)C(C)N(C=O)c1ccccc1OC (stereo not drawn) [FP 95, 3-[N-(2-Methoxyphenyl)formamido]-N-[(2-methoxyphenyl)methyl]-2-oxobutanamide]",> 6.00,5.00 to 6.00,–,–
"COc1ccc(F)cc1N(C=O)C(C)C(=O)C(=O)NCc1cccc(Cl)c1 (stereo not drawn) [FP 7, N-[(3-Chlorophenyl)methyl]-3-[N-(5-fluoro-2-methoxyphenyl)formamido]-2-oxobutanamide]",> 6.00,> 6.00,–,–
"O=C(NCCCO)C(=O)C1CCC(=O)N1Cc1ccc(Cl)cc1 (stereo not drawn) [FP 275, 2-{1-[(4-Chlorophenyl)methyl]-5-oxopyrrolidin-2-yl}-N-(3-hydroxypropyl)-2-oxoacetamide]",> 6.00,< 5.00,–,–
"O=C(NC1CC1)C(=O)C1CCC(=O)N1CCc1ccccc1 (stereo not drawn) [FP 251, N-Cyclopropyl-2-oxo-2-[5-oxo-1-(2-phenylethyl)pyrrolidin-2-yl]acetamide]",> 6.00,5.00 to 6.00,–,–
"CC(=O)N1CCC(CN(C=O)C(C)C(=O)C(=O)NCC2CCCCC2)CC1 (stereo not drawn) [FP 79, 3-{N-[(1-Acetylpiperidin-4-yl)methyl]formamido}-N-(cyclohexylmethyl)-2-oxobutanamide]",5.00 to 6.00,< 5.00,–,–

Compound,pIC50 (PLA2G16),"pEC50 ([1]; Enterovirus B, HeLa H1, 48 h)",pEC50 [1],"pEC50 ([1]; Enterovirus B, CVB1|EV68|HRVA2|HRVA23, HeLa H1, 48 h)"
"CC(C(=O)C(=O)NCC1CCC1)N(C=O)Cc1ccccc1 (stereo not drawn) [FP 201, 3-(N-Benzylformamido)-N-(cyclobutylmethyl)-2-oxobutanamide]",> 6.00,> 6.00,–,–
"COc1cc(F)ccc1N(C=O)C(C)C(=O)C(=O)NCc1cccc(Cl)c1 (stereo not drawn) [FP 8, N-[(3-Chlorophenyl)methyl]-3-[N-(4-fluoro-2-methoxyphenyl)formamido]-2-oxobutanamide]",> 6.00,> 6.00,–,–
"CC(NC(=O)c1ccccc1F)C(=O)C(=O)NCC1CC1 (stereo not drawn) [FP 164, N-(Cyclopropylmethyl)-3-[(2-fluorophenyl)formamido]-2-oxobutanamide]",> 6.00,5.00 to 6.00,–,–
"C[C@@H]1CC(=O)N(Cc2ccccc2)[C@@H]1C(=O)C(=O)NC1CC1 (single isomer, unassigned) [FP 338]",> 6.00,–,5.00 to 6.00,–
"COc1ccccc1N(C=O)C(C)C(=O)C(=O)N[C@@H](C)C(C)C (stereo partly drawn) [FP 108, 3-[N-(2-Methoxyphenyl)formamido]-N-[(2S)-3-methylbutan-2-yl]-2-oxobutanamide]",> 6.00,> 6.00,–,–
"O=C(NC1CN(C(=O)C2CCC2)C1)C(=O)[C@H]1CCC(=O)N1Cc1ccccc1 [FP 318, 2-[(2R)-1-Benzyl-5-oxopyrrolidin-2-yl]-N-(1-cyclobutanecarbonylazetidin-3-yl)-2-oxoacetamide]",> 6.00,5.00 to 6.00,–,–
"Cc1cccc(CN2C(=O)CCC2C(=O)C(=O)NC2CC2)c1 (stereo not drawn) [FP 269, N-Cyclopropyl-2-{1-[(3-methylphenyl)methyl]-5-oxopyrrolidin-2-yl}-2-oxoacetamide]",> 6.00,5.00 to 6.00,–,–
"CC(C)CC(C(=O)C(=O)NCC1CC1)N(C=O)CC1CCOCC1 (stereo not drawn) [FP 63, N-(Cyclopropylmethyl)-5-methyl-3-{N-[(oxan-4-yl)methyl]formamido}-2-oxohexanamide]",> 6.00,> 6.00,–,–
"COc1ccccc1N(C=O)C(C)C(=O)C(=O)NC(C)C (stereo not drawn) [FP 28, 3-[N-(2-Methoxyphenyl)formamido]-2-oxo-N-(propan-2-yl)butanamide]",> 6.00,5.00 to 6.00,–,–
"COc1ccccc1N(C=O)C(C)C(=O)C(=O)NCc1ccc(F)c(Cl)c1 (stereo not drawn) [FP 93, N-[(3-Chloro-4-fluorophenyl)methyl]-3-[A (2-methoxyphenyl)formamido]-2-oxobutanamide]",> 6.00,> 6.00,–,–
"O=CN(CC1CCOCC1)C(C(=O)C(=O)NCC1CC1)C1CC1 (stereo not drawn) [FP 66, 3-Cyclopropyl-N-(cyclopropylmethyl)-3-{N-[(oxan-4-yl)methyl]formamido}-2-oxopropanamide]",> 6.00,5.00 to 6.00,–,–
"CCCC(NC(=O)CN(C)C)C(=O)C(=O)NCC1CCCCC1 (stereo not drawn) [FP 207, N-(Cyclohexylmethyl)-3-[2-(dimethylamino)acetamido]-2-oxohexanamide]",> 6.00,5.00 to 6.00,–,–
"CC(C(=O)C(=O)NCC1CCCCC1)N(C=O)CC1CCOCC1 (stereo not drawn) [FP 49, N-(Cyclohexylmethyl)-3-{N-[(oxan-4-yl)methyl]formamido}-2-oxobutanamide]",> 6.00,> 6.00,–,–
"O=C(NC1CN(S(=O)(=O)C2CCCC2)C1)C(=O)[C@H]1CCC(=O)N1Cc1ccccc1 [FP 322, 2-[(2R)-1-Benzyl-5-oxopyrrolidin-2-yl]-N-[1-(cyclopentanesulfonyl)azetidin-3-yl]-2-oxoacetamide]",> 6.00,> 6.00,–,–
"Cc1ccccc1CN1C(=O)CCC1C(=O)C(=O)NC1CC1 (stereo not drawn) [FP 261, N-Cyclopropyl-2-{1-[(2-methylphenyl)methyl]-5-oxopyrrolidin-2-yl}-2-oxoacetamide]",> 6.00,5.00 to 6.00,–,–
"Cc1ccccc1S(=O)(=O)NC(C)C(=O)C(=O)NCC1CC1 (stereo not drawn) [FP 190, N-(Cyclopropylmethyl)-3-(2-methylbenzenesulfonamido)-2-oxobutanamide]",> 6.00,5.00 to 6.00,–,–
"O=C(COCc1ccccc1)C(=O)NCC1CC1 [FP 128, 3-(Benzyloxy)-N-(cyclopropylmethyl)-2-oxopropanamide]",> 6.00,> 6.00,–,–
O=C(NC1CC1)C(=O)[C@H]1CCC(=O)N1Cc1ccccc1,> 6.00,–,–,> 6.00

# Reference: patent US11091428B2 (HAPLOGEN GMBH, priority 2016, dated 2021)
